Test system: C57Bl/6 mice
Assay: SHIRPA, activity chamber open field and hot plate after single injection
Format: in vivo, mouse
Procedure: Dosing: (R)-2MeGlu (30, 100, 300, or 900 mg/kg), (S)-2MeGlu (30, 100, 300, or 900 mg/kg), rac-2MeGln (30, 100, 300, or 900 mg/kg) and vehicle (PBS) were administered at 10 ml/kg IP dosing volume. Three mice were dosed once with the assigned drug (100, 300, or 900 mg/kg) or vehicle and immediately placed in a new cage for novel cage observation. Subsequently, six mice were dosed once with the assigned drug (30 or 100 mg/kg) or vehicle and tested by SHIRPA, activity chamber, and then hot plate tests.
Hot Plate apparatus (IITC Inc. Model 39) was set to 55° C.±0.2. On testing day, mice were placed on the surface of the hot plate and covered by a transparent glass cylinder (25 cm high and 12 cm diameter). A 30 second cutoff time was assigned. A remote foot-switch pad was used to control the start/stop/reset function. Latency time was recorded when hind paw licking or jumping off first occurred.
The SHIRPA preliminary screen designed by Rogers et al. (1997) was modified and used to assess the general health and behavioral traits of the mice for the initial five minutes after drug administration. The test was conducted in three different testing locations: A cylindrical clear plastic viewing jar (15 cm height×10 cm diameter), a polycarbonate cage (Arena) with 10 cm×10 cm squares on the floor, and a 1 cm×1 cm wire grid. The test began by placing the mouse in the clear plastic viewing jar for 60 seconds, and the behavioral parameters were monitored and recorded. The mouse was then transferred to an open-top arena by releasing them from 25 cm above the floor of the arena. Upon completion of monitoring the parameters inside the arena, the mouse was removed from the arena by the tail. Behavioral parameters monitored were according to Portmann et al. (2014).
Assessment was made in an Open Field Activity Arena (Med Associates Inc., St. Albans, VT. Model ENV-515) mounted with three planes of infrared detectors within a specially designed sound-attenuating chamber (Med Associates Inc., St. Albans, VT. MED-017M-027). The arena was 43 cm (L)×43 cm (W)×30 cm (H) and the sound-attenuating chamber was 74 cm (L)×60 cm (W)×60 cm (H). The mice were placed in the corner of the testing arena and allowed to explore the arena for 60 min while being tracked automatically. Parameters measured include distance moved, velocity, rearing, and times spent in the periphery and center of the Arena. Periphery was defined as the zone 5 cm away from the arena wall. The Arena was cleaned with a 1% Virkon solution at the end of the trial. […] The novel cage protocol is conducted on the benchtop in a lighted room using a clean home cage, and tests habituation using video recording and scoring of behavioral performance. Moreover, the novel cage allows the tester to visualize any other side effects such as seizure or repetitive jumping. The activity chamber is in an enclosed box, and the test is done in the dark, without bedding, and in a sound isolating chamber. The activity chamber measures distance moved using infrared beams and without video recordings.
Exploratory behavioral tests were performed exactly as previously described by us using 2-month-old C57Bl/6 male mice, Example 1. First, we assessed safety and tolerability of acute exposure to 4APA enantiomers in 22 mice by novel cage observation at 100, 300, or 900 mg/kg IP compared to vehicle (PBS) IP (n=3 or 4 mice per group without sample calculation, based on our previous study. Next, we evaluated 24 drug naïve mice with a 23-measure battery of neurologic dysfunction in mice (SHIRPA) (Rogers et al., 2001), automated activity chamber assessment, and hot plate latency acutely following 30 or 100 mg/kg IP compared to vehicle IP (n=4 or 5 mice per group). No exclusion criteria were predetermined and no randomization was performed to allocate subjects in the study.

[1] = single 30 mg/kg IP, only at 11 minutes post injection
[2] = single 100 mg/kg IP, up to 6 minutes post injection

Compound | distance moved in the activity chamber vs vehicle [1] | distance moved in the activity chamber vs vehicle [2]
CC(N)(CCC(N)=O)C(=O)O (racemic) [rac-2MeGln, rac-2-methylglutamine] | modest but significant reduction | not significantly different from vehicle at any time point
C[C@@](N)(CCC(=O)O)C(=O)O [(R)-2MeGlu, (R)-2-methylglutamic acid] | modest but significant reduction | significantly reduced
C[C@](N)(CCC(=O)O)C(=O)O [(S)-2MeGlu, (S)-2-methylglutamic acid] | not significantly different | significantly reduced
